Test results: patent US9469674B2 (HAINAN UNIVERSITY, dated 2016)
Where “and” joins values, the source holds several entries; their conditions need not be identical. Identical values can stand only once. Entries after “also recorded” stand apart in the source; their conditions may differ. Like-named read-outs stand apart in the source and are kept apart here. Where no end group is shown, it is not given here.

Assays:
α3β2 nAChR = α3β2 nAChR (Rattus norvegicus, UniProt P04757+P12390); assay: cell-based; type: cell-based
α6/α3β4 nAChR = α6/α3β4 nAChR (Rattus norvegicus, UniProt P04757+P12392+P43143); assay: cell-based; type: cell-based
α3β4 nAChR = α3β4 nAChR (Rattus norvegicus, UniProt P04757+P12392); assay: cell-based; type: cell-based
α6/α3β2β3 nAChR = α6/α3β2β3 nAChR (Rattus norvegicus, UniProt P04757+P12390+P43143); assay: cell-based; type: cell-based
α7 nAChR = α7 nAChR (Rattus norvegicus, UniProt Q05941); assay: cell-based; type: cell-based
α9α10 nAChR = α9α10 nAChR (Rattus norvegicus, UniProt P43144+Q9JLB5); assay: cell-based
α2β2 nAChR = α2β2 nAChR (Rattus norvegicus, UniProt P12389+P12390); assay: cell-based; type: cell-based
α4β2 nAChR = α4β2 nAChR (Rattus norvegicus, UniProt P09483+P12390); assay: cell-based
α4β4 nAChR = α4β4 nAChR (Rattus norvegicus, UniProt P09483+P12392); assay: cell-based; type: cell-based
human α3β2 nAChR [1] = molecular target: human α3β2 nAChR (Homo sapiens, UniProt P17787+P32297); type: cell-based
human α6/α3β2β3 nAChR = human α6/α3β2β3 nAChR (Homo sapiens, UniProt P17787+P32297+Q15825); assay: cell-based; type: cell-based
α3β2[F119Q] nAChR mutant = α3β2[F119Q] nAChR mutant (Rattus norvegicus, UniProt P04757+P12390, F143Q); type: cell-based
α3β2[F119Q] nAChR mutant, sequence (P04757 26-499 limits assumed, stated change not applied): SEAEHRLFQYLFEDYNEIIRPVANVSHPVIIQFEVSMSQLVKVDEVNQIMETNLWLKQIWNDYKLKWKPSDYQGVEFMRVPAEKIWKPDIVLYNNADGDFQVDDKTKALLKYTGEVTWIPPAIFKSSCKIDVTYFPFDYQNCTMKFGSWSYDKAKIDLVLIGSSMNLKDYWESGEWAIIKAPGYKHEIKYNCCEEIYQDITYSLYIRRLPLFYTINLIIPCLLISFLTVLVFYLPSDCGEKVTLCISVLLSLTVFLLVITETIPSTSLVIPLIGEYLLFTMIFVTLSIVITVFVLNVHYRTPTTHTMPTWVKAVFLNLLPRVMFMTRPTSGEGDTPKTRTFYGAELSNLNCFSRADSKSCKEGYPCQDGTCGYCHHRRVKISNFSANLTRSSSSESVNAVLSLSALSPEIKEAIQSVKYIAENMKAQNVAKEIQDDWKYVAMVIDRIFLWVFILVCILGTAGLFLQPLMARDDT
α3β2[F119Q] nAChR mutant, sequence (P12390 25-500 F143Q limits assumed, stated change not applied): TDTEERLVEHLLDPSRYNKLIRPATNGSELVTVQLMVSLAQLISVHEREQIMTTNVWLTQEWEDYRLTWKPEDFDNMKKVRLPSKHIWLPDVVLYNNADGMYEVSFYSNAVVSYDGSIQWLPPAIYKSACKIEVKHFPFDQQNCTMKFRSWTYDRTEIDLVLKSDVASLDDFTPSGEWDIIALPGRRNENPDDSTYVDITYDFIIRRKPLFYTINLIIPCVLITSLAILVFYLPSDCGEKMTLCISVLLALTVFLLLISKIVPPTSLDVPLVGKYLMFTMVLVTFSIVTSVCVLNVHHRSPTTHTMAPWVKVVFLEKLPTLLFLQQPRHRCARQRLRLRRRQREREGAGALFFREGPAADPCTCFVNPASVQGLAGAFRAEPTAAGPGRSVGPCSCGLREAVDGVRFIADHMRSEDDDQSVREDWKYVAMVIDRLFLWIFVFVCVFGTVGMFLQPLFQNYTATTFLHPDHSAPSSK

α3β2[T59K] nAChR mutant = α3β2[T59K] nAChR mutant (Rattus norvegicus, UniProt P04757+P12390, T83K); type: cell-based
α3β2[T59K] nAChR mutant, sequence (P04757 26-499 limits assumed, stated change not applied): as the sequence (P04757 26-499 limits assumed, stated change not applied) above
α3β2[T59K] nAChR mutant, sequence (P12390 25-500 T83K limits assumed, stated change not applied): as the sequence (P12390 25-500 F143Q limits assumed, stated change not applied) above, with T59K, Q119F counted along it

α3β2[T59L] nAChR mutant = α3β2[T59L] nAChR mutant (Rattus norvegicus, UniProt P04757+P12390, T83L); type: cell-based
α3β2[T59L] nAChR mutant, sequence (P04757 26-499 limits assumed, stated change not applied): as the sequence (P04757 26-499 limits assumed, stated change not applied) above
α3β2[T59L] nAChR mutant, sequence (P12390 25-500 T83L limits assumed, stated change not applied): as the sequence (P12390 25-500 F143Q limits assumed, stated change not applied) above, with T59L, Q119F counted along it

α3β2[Q34A] nAChR mutant = α3β2[Q34A] nAChR mutant (Rattus norvegicus, UniProt P04757+P12390, Q58A); type: cell-based
α3β2[K79A] nAChR mutant = α3β2[K79A] nAChR mutant (Rattus norvegicus, UniProt P04757+P12390, K103A); type: cell-based
α3β2[K79A] nAChR mutant, sequence (P04757 26-499 limits assumed, stated change not applied): as the sequence (P04757 26-499 limits assumed, stated change not applied) above
α3β2[K79A] nAChR mutant, sequence (P12390 25-500 K103A limits assumed, stated change not applied): as the sequence (P12390 25-500 F143Q limits assumed, stated change not applied) above, with K79A, Q119F counted along it

α3β2[T59I] nAChR mutant = α3β2[T59I] nAChR mutant (Rattus norvegicus, UniProt P04757+P12390, T83I); type: cell-based
α3β2[V111I] nAChR mutant = α3β2[V111I] nAChR mutant (Rattus norvegicus, UniProt P04757+P12390, V135I); type: cell-based
α3β2[V111I] nAChR mutant, sequence (P04757 26-499 limits assumed, stated change not applied): as the sequence (P04757 26-499 limits assumed, stated change not applied) above
α3β2[V111I] nAChR mutant, sequence (P12390 25-500 V135I limits assumed, stated change not applied): as the sequence (P12390 25-500 F143Q limits assumed, stated change not applied) above, with V111I, Q119F counted along it

[2] = system: Chronic Constriction Injury model of ischiadic nerve (neuralgia); details: rat, in vivo
[3] = system: hot-plate pain threshold in Kunming mice; details: mouse, in vivo
[4] = molecular target: α3β4 acetylcholine receptor; details: read-out: half-blocking dose IC50; cited from earlier work
[5] = molecular target: α3β2 acetylcholine receptor (Homo sapiens, UniProt P17787+P32297); details: read-out: half-blocking dose IC50; cited from earlier work
[6] = molecular target: α7 acetylcholine receptor (Homo sapiens, UniProt P36544); details: read-out: half-blocking dose IC50; cited from earlier work
α7/5HT3 chimera = details: read-out: half-blocking dose IC50; cited from earlier work
[7] = molecular target: α9α10 acetylcholine receptor (Homo sapiens, UniProt Q9GZZ6+Q9UGM1); details: read-out: half-blocking dose IC50; cited from earlier work
[8] = molecular target: α4β2 acetylcholine receptor (Homo sapiens, UniProt P17787+P43681); details: read-out: half-blocking dose IC50; cited from earlier work
[9] = molecular target: α6/α3β2β3 acetylcholine receptor; details: read-out: half-blocking dose IC50; cited from earlier work
[10] = molecular target: α6/α3β4 acetylcholine receptor; details: read-out: half-blocking dose IC50; cited from earlier work
[11] = molecular target: α4β4 acetylcholine receptor (Homo sapiens, UniProt P30926+P43681); details: read-out: half-blocking dose IC50; cited from earlier work
[12] = molecular target: α2β4 acetylcholine receptor (Homo sapiens, UniProt P30926+Q15822); details: read-out: half-blocking dose IC50; cited from earlier work
rat α2β4 nAChR = rat α2β4 nAChR (rat, UniProt P12389); assay: cell-based or functional assay
rat α9α10 nAChR = rat α9α10 nAChR (rat, UniProt P43144); assay: cell-based or functional assay
rat α2β2 nAChR = rat α2β2 nAChR (rat, UniProt P12389); assay: cell-based or functional assay
rat α4β2 nAChR = rat α4β2 nAChR (rat, UniProt P09483); assay: cell-based or functional assay
rat α4β4 nAChR = rat α4β4 nAChR (rat, UniProt P09483); assay: cell-based or functional assay
human α3β2 nAChR [13] = molecular target: human α3β2 nAChR (human, UniProt P32297); assay: cell-based or functional assay
rat α7 nAChR = rat α7 nAChR (rat, UniProt Q05941); assay: cell-based or functional assay
[14] = read-out: IC50 (half-blocking dose)

## CC[C@H](C)[C@@H]1NC(=O)[C@H](CCC(=O)O)NC(=O)[C@@H]2CCCN2C(=O)[C@H](Cc2cnc[nH]2)NC(=O)[C@H](CC(=O)O)NC(=O)[C@H](C(C)C)NC(=O)[C@H](CC(N)=O)NC(=O)[C@@H]2CSSC[C@H](NC(=O)CN)C(=O)N[C@@H](CSSC[C@@H](C(N)=O)NC1=O)C(=O)N[C@@H](CO)C(=O)N[C@@H](Cc1cnc[nH]1)C(=O)N1CCC[C@H]1C(=O)N[C@@H](C)C(=O)N2 [LvIA/LvD21]
α3β2 nAChR
  % of recovered current within elution time: 100%
  Hill slope of dose-response curve: 1.17 (0.88-1.46)
  Hill slope of dose-response curves: 1.17(0.79-1.54)
  blocking activity to α3β2 times higher than to α6/α3β2β3: ~100 times
  blocking of ACh-gated current: specifically blocks; also recorded: completely blocks
  current blocked: about 50%
  time to complete elution after block: ≤ 2 min
α6/α3β4 nAChR
  Hill slope of dose-response curve: 0.94 (0.66-1.22)
α3β4 nAChR
  Hill slope of dose-response curve: 1.14 (0.72-1.55)
α6/α3β2β3 nAChR
  Hill slope of dose-response curve: 0.60(0.48-0.72)
α7 nAChR
  Hill slope of dose-response curve: 0.65 (0.43-0.87)
α9α10 nAChR
  IC50: > 10000 nM
α9α10 nAChR; [14]
  IC50: > 10000 nM
α2β2 nAChR
  IC50: > 10000 nM
  blocking of ACh-gated current: totally does not block; also recorded: no blocking activity
α2β2 nAChR; [14]
  IC50: > 10000 nM
α4β2 nAChR
  IC50: > 10000 nM
α4β2 nAChR; [14]
  IC50: > 10000 nM
α4β4 nAChR
  IC50: > 10000 nM
α4β4 nAChR; [14]
  IC50: > 10000 nM
Human α3β2 nAChR [1]
  Hill slope of dose-response curve: 0.81 (0.44-1.18)
  blocking activity to α3β2 times higher than to α6/α3β2β3: ~305 times
Human α6/α3β2β3 nAChR
  Hill slope of dose-response curve: 0.85 (0.55-1.15)
  IC50: 5340 nM
α3β2[F119Q] nAChR mutant
  Elution time after blocking: 12 min and 10 to 12 min
  Hill slope of dose-response curves: 1.12(0.79-1.44)
  blocking activity times higher than that to wild type α3β2 nAChR: 25 times
  current blocked: blocked all current
α3β2[T59K] nAChR mutant
  Elution time after blocking: 20 min
  Hill slope of dose-response curves: 0.80(0.47-1.13)
  blocking activity times higher than that to wild type α3β2 nAChR: 15 times
  current blocked: blocked all current
α3β2[T59L] nAChR mutant
  Elution time after blocking: 5 to 8 min
  Hill slope of dose-response curves: 1.07(0.77-1.37)
  blocking activity times higher than that to wild type α3β2 nAChR: 7 times
α3β2[Q34A] nAChR mutant
  Elution time after blocking: 2 to 3 min
  Hill slope of dose-response curves: 0.90(0.22-1.58)
α3β2[K79A] nAChR mutant
  Elution time after blocking: 1 min
  Hill slope of dose-response curves: 0.86(0.43-1.30)
α3β2[T59I] nAChR mutant
  Elution time after blocking: 2 min
  Hill slope of dose-response curves: 1.15(0.43-1.86)
α3β2[V111I] nAChR mutant
  Elution time after blocking: 1 min
  Hill slope of dose-response curves: 1.31(0.66-1.96)
  current blocked: does not block at all; also recorded: totally did not block
[2]
  analgesic effect on neuralgia: potent analgesic effects
  analgesic effect times higher than that of morphine, same weight and dose: 823-1176 times
  average analgesic value (Mechanical Threshold, % of basal): 160%
  mechanical threshold after withdrawal: significantly higher than that of morphine group
[2]; ip
  analgesic value: far higher than morphine
  analgesic value in some cases (Mechanical Threshold, % of basal): up to 200%
  average analgesic value (Mechanical Threshold, % of basal): up to 200%
[3]
  analgesic effect times higher than that of morphine, same weight and dosage: 764-882 times
  pain threshold: 30 s
  pain threshold in comparison with the pain threshold of morphine: 1.3-1.5 times and 1.3 times

## GCCSDPRCAWR----C* [ImI]
[4]
  IC50: 3390 nM
[5]
  IC50: 41 nM
[6]
  IC50: 595 nM
α7/5HT3 chimera
  IC50: 217 nM
[7]
  IC50: 2000 nM

## GCCSHPACAGNNQHIC* [GIC]
[4]
  IC50: 755 nM
[5]
  IC50: 1.1 nM
[8]
  IC50: 309 nM

## GCCSTPPCAVLY---C* [BuIA]
[4]
  IC50: 27.7 nM
[9]
  IC50: 0.26 to 0.46 nM
[10]
  IC50: 1.54 to 2.1 nM
[5]
  IC50: 5.72 nM
[11]
  IC50: 69.9 nM
[12]
  IC50: 121 nM
[6]
  IC50: 272 nM

## GCCSHPACNVDHPEIC (not fully specified; ends and bridges not checked) [α-conotoxin LvIA/LvD21]
Rat α2β4 nAChR
  IC50 (half-blocking dose) on ACh-gated current: 15500 nM
Rat α9α10 nAChR
  IC50 (half-blocking dose) on ACh-gated current: > 10000 nM
Rat α2β2 nAChR
  IC50 (half-blocking dose) on ACh-gated current: > 10000 nM
Rat α4β2 nAChR
  IC50 (half-blocking dose) on ACh-gated current: > 10000 nM
Rat α4β4 nAChR
  IC50 (half-blocking dose) on ACh-gated current: > 10000 nM
Human α3β2 nAChR [13]
  IC50 (half-blocking dose) on ACh-gated current: 17.5 nM
Rat α7 nAChR
  IC50 (half-blocking dose) on ACh-gated current: 3000 nM
